ChEMBL document CHEMBL4507291 (2021)

Tests used:
[1] = target: Mitogen-activated protein kinase kinase kinase kinase 4 (Homo sapiens) (UniProt O95819)
[2] = test system: Epidermal growth factor receptor (Homo sapiens), P00533 [L858R,T790M]
[3] = target: Phosphatidylinositol 4-phosphate 5-kinase type-1 gamma (Homo sapiens) (UniProt O60331)
[4] = target: Interleukin-1 receptor-associated kinase 3 (Homo sapiens) (UniProt Q9Y616)
[5] = target: Serine/threonine-protein kinase pim-1 (Homo sapiens) (UniProt P11309)
[6] = target: GABA-A receptor; anion channel (Rattus norvegicus) (UniProt O09028+P15431+P18506+P18508+P19969+P20236+P23574+P23576+P28471+P28473+P30191+P62813+P63079+P63138+Q91ZM7+Q9ES14); details: Compound concentration 10.0 uM
[7] = target: Mitogen-activated protein kinase kinase kinase 11 (Homo sapiens) (UniProt Q16584)
[8] = target: Serine/threonine-protein kinase PknB (Mycobacterium tuberculosis) (UniProt P9WI81)
[9] = test system: Tyrosine-protein kinase ABL1 (Homo sapiens), P00519 [E255K]
[10] = target: Mitogen-activated protein kinase 7 (Homo sapiens) (UniProt Q13164)
[11] = target: Phosphatidylinositol 4,5-bisphosphate 3-kinase catalytic subunit gamma isoform (Homo sapiens) (UniProt P48736)
[12] = target: Ephrin type-A receptor 5 (Homo sapiens) (UniProt P54756)
[13] = target: Mitotic checkpoint serine/threonine-protein kinase BUB1 (Homo sapiens) (UniProt O43683)
[14] = test system: Mast/stem cell growth factor receptor Kit (Homo sapiens), P10721 [A829P]
[15] = target: T1, Ephrin type-B receptor 2 (Homo sapiens) (UniProt P29323)
T1 sequence (whole entry): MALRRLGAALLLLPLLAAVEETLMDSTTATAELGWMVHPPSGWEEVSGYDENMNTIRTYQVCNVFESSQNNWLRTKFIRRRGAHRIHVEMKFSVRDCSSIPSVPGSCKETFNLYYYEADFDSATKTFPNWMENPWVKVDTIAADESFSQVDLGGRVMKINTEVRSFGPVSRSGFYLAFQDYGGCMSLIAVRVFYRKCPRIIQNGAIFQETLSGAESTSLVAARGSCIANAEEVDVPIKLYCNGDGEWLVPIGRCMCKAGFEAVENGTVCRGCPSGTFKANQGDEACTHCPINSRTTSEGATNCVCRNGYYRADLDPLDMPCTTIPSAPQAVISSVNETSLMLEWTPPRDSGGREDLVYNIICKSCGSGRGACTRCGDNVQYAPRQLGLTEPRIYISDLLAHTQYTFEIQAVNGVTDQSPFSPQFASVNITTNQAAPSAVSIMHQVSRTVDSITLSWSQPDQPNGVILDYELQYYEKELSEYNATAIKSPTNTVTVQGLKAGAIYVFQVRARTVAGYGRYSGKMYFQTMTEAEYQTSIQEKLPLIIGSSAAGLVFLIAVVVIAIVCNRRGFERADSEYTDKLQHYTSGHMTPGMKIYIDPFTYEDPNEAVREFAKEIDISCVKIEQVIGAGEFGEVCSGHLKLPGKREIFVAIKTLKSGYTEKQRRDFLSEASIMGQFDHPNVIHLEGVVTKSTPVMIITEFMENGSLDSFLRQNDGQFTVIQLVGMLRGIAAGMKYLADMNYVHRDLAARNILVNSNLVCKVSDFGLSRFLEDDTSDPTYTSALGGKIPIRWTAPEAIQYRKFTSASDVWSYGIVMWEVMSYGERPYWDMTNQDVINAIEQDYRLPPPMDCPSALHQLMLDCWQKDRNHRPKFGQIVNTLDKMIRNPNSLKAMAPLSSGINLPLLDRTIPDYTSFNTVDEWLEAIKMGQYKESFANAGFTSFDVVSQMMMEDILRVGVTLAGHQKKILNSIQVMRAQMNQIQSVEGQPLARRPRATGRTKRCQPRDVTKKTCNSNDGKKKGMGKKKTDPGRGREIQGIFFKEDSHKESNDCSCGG

[16] = target: Phosphatidylinositol 4-phosphate 5-kinase type-1 alpha (Homo sapiens) (UniProt Q99755)
[17] = target: Wee1-like protein kinase 2 (Homo sapiens) (UniProt P0C1S8)
[18] = target: T2, Inhibitor of nuclear factor kappa-B kinase subunit beta (Homo sapiens) (UniProt O14920)
T2 sequence (whole entry): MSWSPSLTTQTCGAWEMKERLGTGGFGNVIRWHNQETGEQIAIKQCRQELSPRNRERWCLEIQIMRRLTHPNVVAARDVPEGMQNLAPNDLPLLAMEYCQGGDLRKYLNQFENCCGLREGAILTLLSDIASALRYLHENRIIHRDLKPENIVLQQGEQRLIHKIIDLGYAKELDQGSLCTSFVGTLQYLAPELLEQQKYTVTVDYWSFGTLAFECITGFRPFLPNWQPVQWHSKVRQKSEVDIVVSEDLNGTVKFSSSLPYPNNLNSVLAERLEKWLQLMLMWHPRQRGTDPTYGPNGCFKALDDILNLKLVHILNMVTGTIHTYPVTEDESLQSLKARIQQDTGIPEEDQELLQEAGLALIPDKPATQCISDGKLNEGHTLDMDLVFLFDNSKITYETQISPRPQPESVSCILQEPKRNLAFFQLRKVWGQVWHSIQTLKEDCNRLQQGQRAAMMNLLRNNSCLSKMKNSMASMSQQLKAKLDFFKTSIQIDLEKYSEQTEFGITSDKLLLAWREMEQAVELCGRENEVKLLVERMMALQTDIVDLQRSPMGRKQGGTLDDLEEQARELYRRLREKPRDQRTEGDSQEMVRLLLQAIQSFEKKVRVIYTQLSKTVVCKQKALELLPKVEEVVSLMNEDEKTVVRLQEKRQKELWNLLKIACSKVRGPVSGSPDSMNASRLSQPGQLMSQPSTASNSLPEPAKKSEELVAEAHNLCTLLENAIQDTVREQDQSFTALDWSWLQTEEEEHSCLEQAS

[19] = Compound concentration 1000.0 nM
[20] = Compound concentration 100.0 nM

Sequence of Phosphatidylinositol 4-phosphate 5-kinase type-1 alpha (Homo sapiens) (Q99755 whole entry): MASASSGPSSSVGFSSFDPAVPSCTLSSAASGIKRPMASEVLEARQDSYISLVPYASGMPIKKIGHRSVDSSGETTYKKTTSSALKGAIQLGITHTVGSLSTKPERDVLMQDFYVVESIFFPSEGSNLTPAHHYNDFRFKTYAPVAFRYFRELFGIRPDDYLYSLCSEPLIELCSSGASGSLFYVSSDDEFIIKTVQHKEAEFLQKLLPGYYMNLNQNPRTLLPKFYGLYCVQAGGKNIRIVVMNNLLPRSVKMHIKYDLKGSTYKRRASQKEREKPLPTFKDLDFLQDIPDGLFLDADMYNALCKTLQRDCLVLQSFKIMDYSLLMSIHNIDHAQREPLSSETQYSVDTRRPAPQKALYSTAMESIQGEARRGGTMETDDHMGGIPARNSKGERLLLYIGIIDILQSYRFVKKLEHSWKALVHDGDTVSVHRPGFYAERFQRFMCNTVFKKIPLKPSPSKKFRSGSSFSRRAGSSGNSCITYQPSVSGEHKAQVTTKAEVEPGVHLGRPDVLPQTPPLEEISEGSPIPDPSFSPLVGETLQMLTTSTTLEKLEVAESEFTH
Sequence of Tyrosine-protein kinase ABL1 (Homo sapiens), P00519 [E255K] (P00519 whole entry E255K): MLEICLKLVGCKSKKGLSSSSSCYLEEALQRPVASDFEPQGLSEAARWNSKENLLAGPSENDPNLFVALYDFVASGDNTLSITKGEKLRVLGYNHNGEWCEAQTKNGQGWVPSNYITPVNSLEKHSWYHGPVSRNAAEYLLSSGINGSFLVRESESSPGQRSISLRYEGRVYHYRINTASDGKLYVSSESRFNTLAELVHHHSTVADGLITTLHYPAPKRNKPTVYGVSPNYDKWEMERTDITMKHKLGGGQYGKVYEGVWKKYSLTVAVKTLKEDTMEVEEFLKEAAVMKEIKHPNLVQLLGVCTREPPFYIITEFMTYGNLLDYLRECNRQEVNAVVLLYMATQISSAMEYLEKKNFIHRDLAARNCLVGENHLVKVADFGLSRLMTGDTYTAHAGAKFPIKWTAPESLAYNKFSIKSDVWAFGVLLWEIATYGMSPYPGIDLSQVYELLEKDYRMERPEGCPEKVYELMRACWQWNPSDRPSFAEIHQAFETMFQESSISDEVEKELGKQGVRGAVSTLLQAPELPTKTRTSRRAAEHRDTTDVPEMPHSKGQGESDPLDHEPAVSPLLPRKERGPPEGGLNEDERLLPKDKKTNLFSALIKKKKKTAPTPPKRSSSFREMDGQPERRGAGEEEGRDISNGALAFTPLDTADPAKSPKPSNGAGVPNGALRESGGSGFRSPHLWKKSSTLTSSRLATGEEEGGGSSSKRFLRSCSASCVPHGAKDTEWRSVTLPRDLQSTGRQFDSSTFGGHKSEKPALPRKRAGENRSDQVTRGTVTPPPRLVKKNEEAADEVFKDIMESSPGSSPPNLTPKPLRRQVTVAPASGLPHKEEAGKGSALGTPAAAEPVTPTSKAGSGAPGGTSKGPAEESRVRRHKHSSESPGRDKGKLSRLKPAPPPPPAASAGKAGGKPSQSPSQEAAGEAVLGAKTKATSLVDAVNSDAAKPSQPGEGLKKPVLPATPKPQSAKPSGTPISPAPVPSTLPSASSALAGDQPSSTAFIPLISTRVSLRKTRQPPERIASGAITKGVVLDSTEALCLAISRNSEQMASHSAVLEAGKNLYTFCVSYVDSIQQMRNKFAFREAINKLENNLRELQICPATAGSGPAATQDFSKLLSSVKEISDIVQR
Sequence of Phosphatidylinositol 4-phosphate 5-kinase type-1 gamma (Homo sapiens) (O60331 whole entry): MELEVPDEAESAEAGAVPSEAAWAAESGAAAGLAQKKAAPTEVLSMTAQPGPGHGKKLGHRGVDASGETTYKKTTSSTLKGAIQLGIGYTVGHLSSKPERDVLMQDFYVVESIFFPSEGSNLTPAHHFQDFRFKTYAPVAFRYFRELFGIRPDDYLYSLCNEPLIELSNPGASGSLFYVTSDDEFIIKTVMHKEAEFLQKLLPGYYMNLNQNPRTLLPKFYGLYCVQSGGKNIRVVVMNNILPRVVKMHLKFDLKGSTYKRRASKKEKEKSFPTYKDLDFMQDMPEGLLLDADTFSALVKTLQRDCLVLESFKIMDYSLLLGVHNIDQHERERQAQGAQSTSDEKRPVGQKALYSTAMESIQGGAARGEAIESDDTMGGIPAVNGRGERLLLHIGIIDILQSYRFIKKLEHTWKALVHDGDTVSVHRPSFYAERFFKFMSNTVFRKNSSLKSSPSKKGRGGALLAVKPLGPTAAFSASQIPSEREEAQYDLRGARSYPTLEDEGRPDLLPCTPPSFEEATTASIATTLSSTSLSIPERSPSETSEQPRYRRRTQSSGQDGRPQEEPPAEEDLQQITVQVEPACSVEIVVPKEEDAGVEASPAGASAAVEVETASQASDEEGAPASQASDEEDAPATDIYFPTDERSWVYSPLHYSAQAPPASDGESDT
Sequence of Mitogen-activated protein kinase kinase kinase kinase 4 (Homo sapiens) (O95819 2-1239 limits assumed): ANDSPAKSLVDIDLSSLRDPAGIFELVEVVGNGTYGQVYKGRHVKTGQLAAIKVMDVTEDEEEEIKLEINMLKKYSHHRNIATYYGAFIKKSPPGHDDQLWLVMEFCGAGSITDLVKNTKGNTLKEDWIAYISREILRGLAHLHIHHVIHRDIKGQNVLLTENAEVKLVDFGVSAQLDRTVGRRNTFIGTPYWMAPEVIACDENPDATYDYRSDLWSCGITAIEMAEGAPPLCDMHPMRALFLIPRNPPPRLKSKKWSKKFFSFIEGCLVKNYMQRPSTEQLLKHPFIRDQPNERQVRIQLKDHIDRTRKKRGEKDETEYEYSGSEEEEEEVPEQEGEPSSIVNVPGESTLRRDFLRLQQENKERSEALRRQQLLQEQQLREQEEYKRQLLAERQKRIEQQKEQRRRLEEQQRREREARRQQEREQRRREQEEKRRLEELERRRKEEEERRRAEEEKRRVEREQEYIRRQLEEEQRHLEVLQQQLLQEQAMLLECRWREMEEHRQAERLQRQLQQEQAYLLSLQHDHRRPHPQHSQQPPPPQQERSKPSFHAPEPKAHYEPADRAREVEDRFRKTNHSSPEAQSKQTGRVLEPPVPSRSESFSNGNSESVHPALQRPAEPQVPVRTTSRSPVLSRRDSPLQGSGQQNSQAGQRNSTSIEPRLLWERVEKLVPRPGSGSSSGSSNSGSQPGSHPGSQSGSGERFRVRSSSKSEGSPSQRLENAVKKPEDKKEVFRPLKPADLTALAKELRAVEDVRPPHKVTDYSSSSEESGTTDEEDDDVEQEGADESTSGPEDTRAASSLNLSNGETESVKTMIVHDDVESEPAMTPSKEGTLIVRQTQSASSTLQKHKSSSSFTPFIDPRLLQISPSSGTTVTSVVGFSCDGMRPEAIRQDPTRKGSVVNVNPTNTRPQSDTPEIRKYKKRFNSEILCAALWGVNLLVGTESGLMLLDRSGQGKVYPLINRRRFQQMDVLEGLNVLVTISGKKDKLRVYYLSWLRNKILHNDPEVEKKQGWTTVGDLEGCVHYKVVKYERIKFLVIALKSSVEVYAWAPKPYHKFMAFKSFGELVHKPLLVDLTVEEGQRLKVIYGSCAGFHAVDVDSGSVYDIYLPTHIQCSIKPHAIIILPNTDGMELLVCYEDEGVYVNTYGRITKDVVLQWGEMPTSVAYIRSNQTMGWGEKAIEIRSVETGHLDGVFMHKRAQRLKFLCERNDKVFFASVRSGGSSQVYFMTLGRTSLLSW
Sequence of Mitogen-activated protein kinase kinase kinase 11 (Homo sapiens) (Q16584 whole entry, looked up): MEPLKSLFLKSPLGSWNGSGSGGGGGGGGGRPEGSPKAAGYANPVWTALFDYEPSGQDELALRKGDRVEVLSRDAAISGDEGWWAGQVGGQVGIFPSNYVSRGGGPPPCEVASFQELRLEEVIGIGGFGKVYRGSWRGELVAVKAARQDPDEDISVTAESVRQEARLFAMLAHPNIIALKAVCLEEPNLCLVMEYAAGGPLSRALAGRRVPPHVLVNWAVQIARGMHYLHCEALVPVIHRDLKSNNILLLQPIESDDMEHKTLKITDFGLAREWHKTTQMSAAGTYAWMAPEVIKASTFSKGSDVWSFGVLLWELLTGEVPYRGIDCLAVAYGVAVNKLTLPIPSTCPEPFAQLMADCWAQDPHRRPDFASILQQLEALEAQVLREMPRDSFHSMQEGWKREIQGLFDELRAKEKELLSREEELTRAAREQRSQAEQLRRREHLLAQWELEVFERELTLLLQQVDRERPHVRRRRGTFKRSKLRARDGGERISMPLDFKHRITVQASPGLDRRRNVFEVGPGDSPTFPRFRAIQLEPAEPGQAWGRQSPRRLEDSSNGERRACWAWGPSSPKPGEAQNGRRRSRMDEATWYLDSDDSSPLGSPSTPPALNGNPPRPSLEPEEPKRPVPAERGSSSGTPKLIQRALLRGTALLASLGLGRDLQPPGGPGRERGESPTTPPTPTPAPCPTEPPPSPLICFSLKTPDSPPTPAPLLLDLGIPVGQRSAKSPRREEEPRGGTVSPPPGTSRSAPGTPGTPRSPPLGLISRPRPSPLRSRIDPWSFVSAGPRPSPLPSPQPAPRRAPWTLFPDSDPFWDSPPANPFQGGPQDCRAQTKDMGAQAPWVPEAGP
Sequence of Serine/threonine-protein kinase pim-1 (Homo sapiens) (P11309 whole entry, looked up): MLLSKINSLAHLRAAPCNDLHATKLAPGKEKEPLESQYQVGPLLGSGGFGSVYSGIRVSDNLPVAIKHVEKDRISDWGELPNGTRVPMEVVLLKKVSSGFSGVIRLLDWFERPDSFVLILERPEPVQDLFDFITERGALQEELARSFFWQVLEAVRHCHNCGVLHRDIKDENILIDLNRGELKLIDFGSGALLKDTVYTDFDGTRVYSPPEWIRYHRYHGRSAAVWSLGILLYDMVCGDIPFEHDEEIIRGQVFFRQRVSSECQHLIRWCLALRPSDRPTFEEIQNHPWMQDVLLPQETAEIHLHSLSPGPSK

C[C@@H]1CN(c2cc(-c3nn(C)c4ccc(OC5(C)CC5)cc34)ncn2)C[C@H](C)O1 [MLi-2-NC]
inactive: residual activity [1, 19] 100% | residual activity [2, 19] 99% | residual activity [3, 19] 90% | residual activity [4, 19] 89% | residual activity [5, 19] 77% | inhibition [6] 2.92% | residual activity [7, 19] 100% | residual activity [8, 19] 100% | residual activity [9, 19] 79% | residual activity [10, 19] 76% | residual activity [11, 19] 100% | residual activity [12, 19] 100% | residual activity [13, 19] 89% | residual activity [14, 19] 60% | residual activity [15, 19] 95% | residual activity [16, 19] 100% | residual activity [17, 19] 96% | residual activity [18, 19] 76%

C[C@@H]1CN(c2cc(-c3n[nH]c4ccc(OC5(C)CC5)cc34)ncn2)C[C@H](C)O1 [MLi-2]
inactive: residual activity [1, 20] 98% | residual activity [2, 20] 84% | residual activity [3, 20] 92% | residual activity [4, 20] 94% | residual activity [5, 20] 100% | inhibition [6] 7.14% | residual activity [7, 20] 100% | residual activity [8, 20] 95% | residual activity [9, 20] 66% | residual activity [10, 20] 92% | residual activity [11, 20] 72% | residual activity [12, 20] 95% | residual activity [13, 20] 84% | residual activity [14, 20] 62% | residual activity [15, 20] 90% | residual activity [16, 20] 100% | residual activity [17, 20] 100% | residual activity [18, 20] 84%
